Measured values taken from ChEMBL document CHEMBL1139137, “Modifications of the GSK3beta substrate sequence to produce substrate-mimetic inhibitors of Akt as potential anti-cancer therapeutics” (Bioorg Med Chem Lett, 2007).
Starred links: 1 amine or outer side, 2 acyl side, 3 side chain; linkers in the order of their positions; H or OH if unused. Non-standard residues stand in square brackets, D forms with d. Residues, ends and D or L forms follow the SMILES beside them. *: point of attachment. NH(2-(1-naphthyl)ethyl) = c1ccc2c(CCN*)cccc2c1; NHCH2CH2(piperidin-1-yl) = C1CCN(CCN*)CC1; X4 = c1ccc(CC2CCN(CCN*)CC2)cc1; X1 = CC(=O)Nc1cccc(OCCCN*)c1; X2 = c1ccc2cc(CCN*)ccc2c1; 4Abz = Nc1ccc(C(=O)O)cc1; X3 = CCCCCc1ccc(CN*)cc1; CO = O=C([*:1])[*:2]; NHBn = c1ccc(CN*)cc1; NHHex = CCCCCCN*

Target: RAC-alpha serine/threonine-protein kinase (Homo sapiens, UniProt P31749)
Test: Inhibition of Akt after 1 hr by fluorescence polarization assay

RAC-alpha serine/threonine-protein kinase, sequence (P31749 whole entry): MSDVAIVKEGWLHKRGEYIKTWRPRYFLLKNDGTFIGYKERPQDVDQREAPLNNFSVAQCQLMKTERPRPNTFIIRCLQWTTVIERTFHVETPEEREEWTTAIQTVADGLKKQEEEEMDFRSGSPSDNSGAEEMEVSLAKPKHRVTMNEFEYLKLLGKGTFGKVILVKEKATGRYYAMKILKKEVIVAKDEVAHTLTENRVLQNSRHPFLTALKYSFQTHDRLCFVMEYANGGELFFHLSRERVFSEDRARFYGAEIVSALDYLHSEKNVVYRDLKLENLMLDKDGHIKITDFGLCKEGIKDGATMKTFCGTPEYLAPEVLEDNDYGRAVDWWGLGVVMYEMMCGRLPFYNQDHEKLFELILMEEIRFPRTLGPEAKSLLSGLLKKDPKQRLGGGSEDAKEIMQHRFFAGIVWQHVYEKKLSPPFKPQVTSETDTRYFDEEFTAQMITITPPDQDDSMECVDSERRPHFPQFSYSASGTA

Row | Molecule | IC50 [µM]
1 | CC(C)[C@H](NC(=O)c1ccc(NCCNC(=N)N)cc1)C(=O)N[C@@H](Cc1ccccc1)C(=O)NCc1ccccc1 | 390
2 | CC(C)[C@H](NC(=O)c1ccc(CNC(=N)N)cc1)C(=O)N[C@@H](Cc1ccccc1)C(=O)NCc1ccccc1 | > 500
3 | CC(=O)N[C@@H](CCCN=C(N)N)C(=O)Nc1ccc(C(=O)N[C@H](C(=O)N[C@@H](Cc2ccccc2)C(=O)NCCc2ccc3ccccc3c2)C(C)C)cc1 | 51
4 | CC(=O)N[C@@H](CCCNC(=N)N)C(=O)Nc1ccc(C(=O)N[C@H](C(=O)N[C@@H](Cc2ccccc2)C(=O)NCCc2cccc3ccccc23)C(C)C)cc1 | 89
5 | CC(C)[C@H](NC(=O)c1ccc(CCN=C(N)N)cc1)C(=O)N[C@@H](Cc1ccccc1)C(=O)NCc1ccccc1 | 120
6 | CC(C)[C@H](NC(=O)c1ccc(N(CC(=O)NC(C)(C)C)C(=O)CCCCNC(=N)N)cc1)C(=O)N[C@@H](Cc1ccccc1)C(=O)NCc1ccccc1 | 58
7 | CCCCCCNC(=O)[C@H](Cc1ccccc1)NC(=O)[C@@H](NC(=O)c1ccc(NC(=O)[C@H](CCCNC(=N)N)NC(C)=O)cc1)C(C)C | 163
8 | CC(C)[C@H](NC(=O)c1ccc(NC(=N)N)cc1)C(=O)N[C@@H](Cc1ccccc1)C(=O)NCc1ccccc1 | 77
9 | CCCCCc1ccc(CNC(=O)[C@H](Cc2ccccc2)NC(=O)[C@@H](NC(=O)c2ccc(NC(=O)[C@H](CCCN=C(N)N)NC(C)=O)cc2)C(C)C)cc1 | 104
10 | CC(C)[C@H](NC(=O)c1ccc(N(CC(=O)NCc2ccccc2)C(=O)CCCCNC(=N)N)cc1)C(=O)N[C@@H](Cc1ccccc1)C(=O)NCc1ccccc1 | 14
11 | CC(C)[C@H](NC(=O)c1ccc(NC(=O)CCCCNC(=N)N)cc1)C(=O)N[C@@H](Cc1ccccc1)C(=O)NCc1ccccc1 | 193
12 | CC(=O)NCC(=O)N[C@@H](C)C(=O)N1CCC[C@H]1C(=O)N[C@@H](C)C(=O)Nc1ccc(C(=O)N[C@H](C(=O)N[C@@H](Cc2ccccc2)C(=O)NCc2ccccc2)C(C)C)cc1 (Ac-GAPA[4Abz]VF-NHBn) | > 500
13 | CC(=O)NCC(=O)N[C@@H](C)C(=O)N1CCC[C@H]1C(=O)N[C@@H](CCCNC(=N)N)C(=O)Nc1ccc(C(=O)N[C@H](C(=O)N[C@@H](Cc2ccccc2)C(=O)NCc2ccccc2)C(C)C)cc1 (Ac-GAPR[4Abz]VF-NHBn) | 41
14 | CC(=O)NCC(=O)N[C@@H](CCCN=C(N)N)C(=O)N1CCC[C@H]1C(=O)N[C@@H](C)C(=O)Nc1ccc(C(=O)N[C@H](C(=O)N[C@@H](Cc2ccccc2)C(=O)NCc2ccccc2)C(C)C)cc1 (Ac-GRPA[4Abz]VF-NHBn) | 79
15 | CC(=O)NCC(=O)N[C@@H](CCCNC(=N)N)C(=O)N1CCC[C@H]1C(=O)N[C@@H](CCCNC(=N)N)C(=O)N[C@@H](C)C(=O)N[C@@H](C)C(=O)N[C@H](C(=O)N[C@@H](Cc1ccccc1)C(=O)NCc1ccccc1)C(C)C (Ac-GRPRAAVF-NHBn) | 438
16 | CC(=O)NCC(=O)N[C@@H](CCCNC(=N)N)C(=O)N1CCC[C@H]1C(=O)N[C@@H](CCCNC(=N)N)C(=O)N[C@H](C(=O)N[C@H](C(=O)N[C@H](C(=O)N[C@@H](Cc1ccccc1)C(=O)NCc1ccccc1)C(C)C)[C@@H](C)O)[C@@H](C)O (Ac-GRPRTTVF-NHBn) | 239

Row | Molecule | IC50 [µM]
17 | CCCCCCNC(=O)[C@H](Cc1ccccc1)NC(=O)[C@@H](NC(=O)c1ccc(NC(=O)[C@H](CCCN=C(N)N)NC(=O)[C@@H]2CCCN2C(=O)[C@H](CCCN=C(N)N)NC(=O)CNC(C)=O)cc1)C(C)C (Ac-GRPR[4Abz]VF-NHHex) | 52
18 | CC(=O)NCC(=O)N[C@@H](CCCNC(=N)N)C(=O)N1CCC[C@H]1C(=O)N[C@@H](CCCNC(=N)N)C(=O)Nc1ccc(C(=O)N[C@H](C(=O)N[C@@H](Cc2ccccc2)C(=O)NCCCOc2cccc(NC(C)=O)c2)C(C)C)cc1 (Ac-GRPR[4Abz]VF-X1) | 322
19 | CC(=O)NCC(=O)N[C@@H](CCCN=C(N)N)C(=O)N1CCC[C@H]1C(=O)N[C@@H](CCCN=C(N)N)C(=O)Nc1ccc(C(=O)N[C@H](C(=O)N[C@@H](Cc2ccccc2)C(=O)NCCc2ccc3ccccc3c2)C(C)C)cc1 (Ac-GRPR[4Abz]VF-X2) | 36
20 | CCCCCc1ccc(CNC(=O)[C@H](Cc2ccccc2)NC(=O)[C@@H](NC(=O)c2ccc(NC(=O)[C@H](CCCN=C(N)N)NC(=O)[C@@H]3CCCN3C(=O)[C@H](CCCN=C(N)N)NC(=O)CNC(C)=O)cc2)C(C)C)cc1 (Ac-GRPR[4Abz]VF-X3) | 96
21 | CC(=O)NCC(=O)N[C@@H](CCCNC(=N)N)C(=O)N1CCC[C@H]1C(=O)N[C@@H](CCCNC(=N)N)C(=O)Nc1ccc(C(=O)N[C@H](C(=O)N[C@@H](Cc2ccccc2)C(=O)NCCN2CCC(Cc3ccccc3)CC2)C(C)C)cc1 (Ac-GRPR[4Abz]VF-X4) | 94
22 | CC(=O)NCC(=O)N[C@@H](CCCNC(=N)N)C(=O)N1CCC[C@H]1C(=O)N[C@@H](CCCNC(=N)N)C(=O)Nc1ccc(C(=O)N[C@H](C(=O)N[C@@H](Cc2ccccc2)C(=O)NCCc2cccc3ccccc23)C(C)C)cc1 (Ac-GRPR[4Abz]VF-{NH(2-(1-naphthyl)ethyl)}) | 62
23 | CC(=O)NCC(=O)N[C@@H](CCCNC(=N)N)C(=O)N1CCC[C@H]1C(=O)N[C@@H](CCCNC(=N)N)C(=O)Nc1ccc(C(=O)N[C@H](C(=O)N[C@@H](Cc2ccccc2)C(=O)NCCN2CCCCC2)C(C)C)cc1 (Ac-GRPR[4Abz]VF-{NHCH2CH2(piperidin-1-yl)}) | > 500
24 | CC(=O)N[C@@H](CCCN=C(N)N)C(=O)Nc1ccc(C(=O)N[C@H](C(=O)N[C@@H](Cc2ccccc2)C(=O)NCc2ccccc2)C(C)C)cc1 (Ac-R[4Abz]VF-NHBn) | 119
25 | C[C@@H](O)[C@H](NC(=O)[C@H](CCCNC(=N)N)NC(=O)[C@@H]1CCCN1C(=O)[C@H](CCCNC(=N)N)NC(=O)CNC(=O)O)C(=O)N[C@H](C(=O)N[C@@H](CC(N)=O)C(=O)N[C@@H](Cc1ccccc1)C(=O)O)[C@@H](C)O ({CO}-GRPRTTNF-OH) | 229
26 | Ac-GRPRTTAF-OH | 409
27 | Ac-GRPRTTCF-OH | 241
28 | Ac-GRPRTTFF-OH | > 500
29 | Ac-GRPRTTHF-OH | > 500
30 | Ac-GRPRTTVF-OH | 445
31 | Ac-GRPRTTWF-OH | > 500
